Like-named read-outs stand apart in the source and are kept apart here.
What was measured:
Format in all cases: binding
[1] = biological target: T1, HeLa cell extract proteins (Homo sapiens, UniProt P38606)
T1 construct: endogenous in cells; host or cells: HeLa cell extract

[2] = biological target: T2, HeLa cell extract proteins (Homo sapiens, UniProt Q709F0)
T2 construct: endogenous in cells; host or cells: HeLa cell extract
T2 sequence (Q709F0 1-780): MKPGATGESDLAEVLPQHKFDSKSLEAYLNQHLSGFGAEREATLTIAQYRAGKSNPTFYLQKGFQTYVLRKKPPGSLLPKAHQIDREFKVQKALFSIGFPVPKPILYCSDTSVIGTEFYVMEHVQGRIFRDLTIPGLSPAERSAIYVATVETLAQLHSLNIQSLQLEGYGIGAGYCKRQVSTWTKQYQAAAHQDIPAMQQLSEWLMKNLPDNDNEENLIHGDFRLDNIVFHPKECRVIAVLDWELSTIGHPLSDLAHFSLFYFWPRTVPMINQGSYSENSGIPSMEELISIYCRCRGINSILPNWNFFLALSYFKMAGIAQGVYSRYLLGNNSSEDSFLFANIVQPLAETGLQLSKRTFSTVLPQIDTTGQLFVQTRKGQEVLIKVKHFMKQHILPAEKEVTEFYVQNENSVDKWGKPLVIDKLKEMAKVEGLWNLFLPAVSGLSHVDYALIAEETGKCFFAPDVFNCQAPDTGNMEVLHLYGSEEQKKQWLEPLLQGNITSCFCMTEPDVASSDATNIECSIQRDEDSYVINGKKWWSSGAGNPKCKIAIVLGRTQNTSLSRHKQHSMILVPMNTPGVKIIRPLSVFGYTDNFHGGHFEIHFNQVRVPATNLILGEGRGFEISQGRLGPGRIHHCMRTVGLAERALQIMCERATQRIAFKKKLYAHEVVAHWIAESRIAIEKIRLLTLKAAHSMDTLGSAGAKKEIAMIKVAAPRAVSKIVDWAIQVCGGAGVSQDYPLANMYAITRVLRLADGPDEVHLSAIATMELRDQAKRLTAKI

[3] = biological target: T3, HeLa cell extract proteins (Homo sapiens, UniProt P16083)
T3 construct: endogenous in cells; host or cells: HeLa cell extract
T3 sequence (P16083 1-231): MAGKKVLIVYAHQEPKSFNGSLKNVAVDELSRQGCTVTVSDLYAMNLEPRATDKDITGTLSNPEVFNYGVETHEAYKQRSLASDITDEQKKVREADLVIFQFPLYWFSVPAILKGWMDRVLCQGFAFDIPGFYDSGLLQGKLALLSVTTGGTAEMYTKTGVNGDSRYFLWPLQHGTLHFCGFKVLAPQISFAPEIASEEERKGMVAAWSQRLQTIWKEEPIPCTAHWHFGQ

[4] = biological target: T4, HeLa cell extract proteins (Homo sapiens, UniProt Q9H3U1)
T4 construct: endogenous in cells; host or cells: HeLa cell extract
T4 sequence (Q9H3U1 1-944): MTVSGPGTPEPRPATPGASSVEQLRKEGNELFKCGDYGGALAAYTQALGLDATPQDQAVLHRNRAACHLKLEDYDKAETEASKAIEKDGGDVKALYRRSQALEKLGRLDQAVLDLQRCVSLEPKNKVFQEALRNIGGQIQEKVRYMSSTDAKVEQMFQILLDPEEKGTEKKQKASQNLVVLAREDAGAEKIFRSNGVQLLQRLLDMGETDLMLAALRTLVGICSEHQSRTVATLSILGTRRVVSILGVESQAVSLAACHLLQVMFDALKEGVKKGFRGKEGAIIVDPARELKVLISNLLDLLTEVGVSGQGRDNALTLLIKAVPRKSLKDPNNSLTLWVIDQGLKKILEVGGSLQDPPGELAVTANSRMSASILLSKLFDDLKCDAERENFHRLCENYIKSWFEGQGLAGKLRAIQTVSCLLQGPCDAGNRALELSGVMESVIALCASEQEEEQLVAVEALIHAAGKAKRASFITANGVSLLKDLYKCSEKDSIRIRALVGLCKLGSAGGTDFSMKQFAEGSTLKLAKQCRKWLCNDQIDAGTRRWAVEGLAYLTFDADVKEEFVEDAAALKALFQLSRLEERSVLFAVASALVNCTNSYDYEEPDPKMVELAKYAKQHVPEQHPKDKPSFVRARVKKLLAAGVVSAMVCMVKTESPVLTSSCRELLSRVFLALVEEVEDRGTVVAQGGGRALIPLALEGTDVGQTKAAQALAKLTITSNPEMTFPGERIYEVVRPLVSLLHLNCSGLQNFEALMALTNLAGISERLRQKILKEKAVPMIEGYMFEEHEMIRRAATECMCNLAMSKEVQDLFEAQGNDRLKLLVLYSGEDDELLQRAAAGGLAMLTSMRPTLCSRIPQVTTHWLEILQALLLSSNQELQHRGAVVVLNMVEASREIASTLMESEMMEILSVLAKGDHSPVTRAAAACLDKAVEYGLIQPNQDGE

[5] = biological target: T5, HeLa cell extract proteins (Homo sapiens, UniProt P49189)
T5 construct: endogenous in cells; host or cells: HeLa cell extract

[6] = biological target: T6, HeLa cell extract proteins (Homo sapiens, UniProt Q9ULX6)
T6 construct: endogenous in cells; host or cells: HeLa cell extract
T6 sequence (Q9ULX6 1-646): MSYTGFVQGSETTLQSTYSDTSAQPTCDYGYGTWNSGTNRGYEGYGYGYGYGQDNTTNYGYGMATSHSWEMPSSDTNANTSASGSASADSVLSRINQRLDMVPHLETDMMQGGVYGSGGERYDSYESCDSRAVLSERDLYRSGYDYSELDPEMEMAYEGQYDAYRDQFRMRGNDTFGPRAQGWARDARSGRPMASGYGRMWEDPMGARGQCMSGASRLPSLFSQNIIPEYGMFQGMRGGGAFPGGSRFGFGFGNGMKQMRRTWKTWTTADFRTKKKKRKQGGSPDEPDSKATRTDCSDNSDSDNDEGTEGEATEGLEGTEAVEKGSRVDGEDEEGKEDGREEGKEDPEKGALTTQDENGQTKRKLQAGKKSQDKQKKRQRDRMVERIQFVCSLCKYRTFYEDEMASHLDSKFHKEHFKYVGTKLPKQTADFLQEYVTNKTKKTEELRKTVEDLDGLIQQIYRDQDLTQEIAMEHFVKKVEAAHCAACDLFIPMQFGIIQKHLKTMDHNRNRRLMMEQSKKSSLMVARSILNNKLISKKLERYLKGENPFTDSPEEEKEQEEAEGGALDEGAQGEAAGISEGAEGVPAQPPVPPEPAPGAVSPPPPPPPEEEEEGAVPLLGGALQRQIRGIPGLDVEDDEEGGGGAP

T5 sequence (P49189 whole entry): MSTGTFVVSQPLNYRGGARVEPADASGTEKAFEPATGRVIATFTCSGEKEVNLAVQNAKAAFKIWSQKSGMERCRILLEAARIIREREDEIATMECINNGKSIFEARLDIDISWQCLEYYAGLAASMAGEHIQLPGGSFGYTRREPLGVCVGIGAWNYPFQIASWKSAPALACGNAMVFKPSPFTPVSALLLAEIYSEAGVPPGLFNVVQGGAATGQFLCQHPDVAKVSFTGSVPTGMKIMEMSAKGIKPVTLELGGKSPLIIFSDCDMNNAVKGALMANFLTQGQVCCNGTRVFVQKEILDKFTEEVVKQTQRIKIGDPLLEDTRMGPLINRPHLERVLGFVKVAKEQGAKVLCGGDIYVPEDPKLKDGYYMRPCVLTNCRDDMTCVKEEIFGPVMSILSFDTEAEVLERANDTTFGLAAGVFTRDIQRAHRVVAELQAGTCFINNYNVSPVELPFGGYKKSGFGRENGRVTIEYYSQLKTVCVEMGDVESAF
T1 sequence (P38606 whole entry): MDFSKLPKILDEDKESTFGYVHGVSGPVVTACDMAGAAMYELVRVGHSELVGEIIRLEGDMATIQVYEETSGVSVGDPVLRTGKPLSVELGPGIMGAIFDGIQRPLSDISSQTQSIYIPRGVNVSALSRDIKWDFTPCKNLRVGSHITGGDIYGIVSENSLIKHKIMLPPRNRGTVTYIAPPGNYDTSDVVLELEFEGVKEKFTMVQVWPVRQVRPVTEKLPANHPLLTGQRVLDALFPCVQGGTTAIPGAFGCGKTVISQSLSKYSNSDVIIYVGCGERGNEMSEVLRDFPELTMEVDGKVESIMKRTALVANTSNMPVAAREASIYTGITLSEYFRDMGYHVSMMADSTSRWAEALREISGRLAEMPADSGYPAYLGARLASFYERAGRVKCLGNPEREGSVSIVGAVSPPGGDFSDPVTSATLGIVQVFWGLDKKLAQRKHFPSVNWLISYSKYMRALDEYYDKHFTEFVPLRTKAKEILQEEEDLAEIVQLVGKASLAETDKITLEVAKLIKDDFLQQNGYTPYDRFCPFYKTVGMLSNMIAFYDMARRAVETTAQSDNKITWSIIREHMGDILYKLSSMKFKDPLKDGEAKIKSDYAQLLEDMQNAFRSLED

Compound	fold changes relative to vehicle control ([1]; protein ATP6V1A, HeLa)	fold changes relative to vehicle control ([2]; captured protein ACAD11, HeLa)	fold changes relative to vehicle control ([3]; HeLa, protein NQO2)	fold changes relative to vehicle control ([4]; protein UNC45A, HeLa)	fold changes relative to vehicle control ([5]; protein ALDH9A1, HeLa)	fold changes relative to vehicle control ([6]; captured protein AKAP8L, HeLa)	fold changes relative to vehicle control ([1]; HeLa, protein ATP6V1A)	fold changes relative to vehicle control ([2]; HeLa, protein ACAD11)	fold changes relative to vehicle control ([3]; protein NQO2, HeLa)	fold changes relative to vehicle control ([4]; HeLa, protein UNC45A)	fold changes relative to vehicle control ([5]; HeLa, captured protein ALDH9A1)	fold changes relative to vehicle control ([6]; HeLa, protein AKAP8L)	also measured
Nc1nc2cccc(-c3ccccc3)c2n1Cc1ccc(Cl)c(Cl)c1 [compound 3]	0.83	1.07	0.99	0.97	1.08	0.92	–	–	–	–	–	–	–
Nc1nc2[nH]cc(CCc3ccc(C(=O)N[C@@H](CCC(=O)O)C(=O)O)cc3)c2c(=O)[nH]1 [PTX, pemetrexed]	–	–	–	–	–	–	–	–	–	–	–	–	fold changes relative to vehicle control [1]: 0.9; fold changes relative to vehicle control [2]: 0.98; fold changes relative to vehicle control [3]: 0.16; fold changes relative to vehicle control [4]: 0.99; fold changes relative to vehicle control [5]: 1.02; fold changes relative to vehicle control [6]: 0.95
Nc1nc2c(c(=O)[nH]1)N(C=O)C(CNc1ccc(C(=O)N[C@@H](CCC(=O)O)C(=O)O)cc1)CN2 (stereo partly drawn) [LEU, leucovorin]	–	–	–	–	–	–	1	1.12	1.1	1.07	0.9	1.01	–
CCCCCCOc1cccc(Cc2cnc(N)nc2N)c1 [compound 2]	1.5	0.77	0.7	1.53	1.01	1.03	–	–	–	–	–	–	–
NCCOCCOCC(=O)Nc1nc2ncc(CNc3ccc(C(=O)NC(CCC(=O)O)C(=O)O)cc3)nc2c(=O)[nH]1 (stereo not drawn) [compound 6]	–	–	–	–	–	–	1.04	0.95	0.72	1.16	0.92	1.01	–
CCCCCCOc1ccc(Cc2cnc(N)nc2N)cc1 [compound 1]	1.04	1.02	0.91	1.44	1	0.79	–	–	–	–	–	–	–
NCCCNc1ccc(C(=O)NC(CCC(=O)O)C(=O)O)cc1 (stereo not drawn) [compound 7]	–	–	–	–	–	–	0.93	1.05	1.04	1.05	0.98	1.08	–
